Data published in patent EP0624368A2, “Use of a composition for stimulating the synthesis of glutathione in the manufacture of a medicament for the treatment of acquired immune deficiency syndrome” (priority 1993, dated 1994).
One block for each compound: values may come before it.

Columns and labels:
[1] = tested on: HIV-1 (strain IIIB); experiment: MTT assay of protection against acute HIV infection in MT-2 cells; type: cell-based; settings: 100 IU/well HIV; for OD readings at 540 nm (MTT assay): MT-2, Day 6 cultures; for Calculated single treatment ED50: MT-2 cells, MTT assay
Excerpt: (§1) Three cell culture systems were used in this study: H-9 cells; MT-2 cells; and normal human peripheral blood mononuclear cells (PBMC). H-9 cells were obtained from Advanced Biotechnology Inc. (ABI). MT-2 cells were obtained from Dr. J. Armstrong of the University of Pittsburgh. MT-2 cells are HTLV-I transformed human T lymphocytes and continuously produce HTLV-I virions. PBMC were obtained from healthy donors, purified by Ficol-Hypaque, and stimulated with PHA mitogen before being used in the efficacy studies. The initial stock of HIV-1 (strain IIIB) used in this study was obtained from ABI and the working stocks were produced.
(§2) Cells were collected, put into tissue culture plates and incubated with different concentrations of drugs in RPMI 1640 tissue culture medium for 20 minutes prior to HIV challenge. Infection was carried out by inoculating 20-100 HIV infectious units (IU)/well inoculum without removing the drugs. The untreated cells exposed to HIV challenge served as positive controls. The normal untreated uninfected cells served as negative controls.
(§3) Both the MTT assay and HIV p24 ELISA were used for evaluation of drug efficacies with MT-2 cells. The MTT assay is based upon the metabolic reduction of the MTT tetrazolium bromide dye in live cells. The OD readings (at 540 nm) obtained from the MTT assay are inversely correlated to the levels of cell mortality due to HIV infection or the cytotoxic effect of drugs. […] The HIV p24 antigen assay measures the level of HIV antigen present in the sample (i.e., culture supernatant).
(§4) When evaluating the efficacies of drugs in H-9 cells and PBMC systems, only HIV p24 assays were used. To calculate the ED₅₀ values, a second order linear regression was applied on the logarithm of the tested doses of different drugs against the OD readings obtained from either MTT assays or HIV p24 assays.

[2] = tested on: HIV-1 (strain IIIB); experiment: HIV p24 antigen assay in H-9 cells (single and combination treatment); type: cell-based; settings: 80 IU/well HIV; for OD readings at 450 nm (HIV p24 antigen): H-9; for Calculated single treatment ED50: H-9 cells, p24 assay
Excerpt: as §1, §2, §4
(§5) Cells were collected, put into tissue culture plates and incubated with different combinations of drugs for 20 minutes prior to HIV infection in the combined treatment studies. Infection was carried out by inoculating 20-100 HIV IU/well inoculum without removing the drugs. The inocula were the same as the ones used in the single drug treatment to obtain the ED₅₀ values. Both MTT assays and HIV p24 antigen assays were used in evaluation of drug effects in MT-2 cells but only HIV p24 antigen assays were used for H-9 cells or PBMC.
(§6) Therefore, if the CI is less than 1, it indicates synergism among the tested drugs. Similarly, if the CI is equal to 1, the effects are additive, while a CI value greater than 1 is indicative of an antagonistic effect.

[3] = tested on: HIV-1 (strain IIIB); experiment: HIV p24 antigen assay in PBMC (single and combination treatment); type: cell-based; settings: 50 IU/well HIV; for Calculated single treatment ED50: p24 assay
Excerpt: as §1, §2, §4, §5, §6

[4] = tested on: mice; experiment: Hematology of terminal blood in mice treated with AZT with or without Procysteine diet; type: in vivo; settings: both sexes, AZT 50 or 500 mg/kg body weight/day by gavage 14 days, 1.0% Procysteine® diet in combination groups, p<0.01
Protocol: On study day 17, the animals were anesthetized with methoxyflurane (in a bell jar). When deeply anesthetized, blood was obtained from the abdominal aorta and transferred for hematological analysis into tubes containing an K₂EDTA suspension.
The following assays were conducted. Leukocyte count Erythrocyte count Total hemoglobin concentration Hematocrit Mean corpuscular volume (MCV) Mean corpuscular hemoglobin (MCH) Mean corpuscular hemoglobin concentration Platelet count Reticulocyte count Differential leukocyte count

[5] = tested on: mice; experiment: Bone marrow aspirate count and stem cell colony assay in treated mice; type: in vivo
Protocol: Populations of bone marrow colony forming cells were evaluated. Bone marrow was collected and the stem cell assay conducted, as follows: one femur per mouse was cut at the distal and proximal ends. Using a syringe and 25 gauge needle, 5 mL of IMDM media was flushed through the femur into a collection tube (2.5 mL flushed into one end, then 2.5 ml into the other end). The tube was washed using Iscove's Modified Dulbecco's Media containing 20% fetal bovine serum and the cell concentration was adjusted to the desired count for the colony assay.
In triplicate, the marrow cells were put into a mixture of methylcellulose and plated into 35 mm diameter dishes. The dishes were incubated for approximately 2 weeks (37°C, 5% CO₂, 100% relative humidity) then manually scored under a microscope for myeloid, erythroid, and mixed colonies.

[6] = tested on: mice; experiment: Bone marrow smear evaluation in treated mice
[7] = tested on: HIV-1 (strain IIIB); experiment: HIV p24 antigen assay in MT-2 cells (single and combination treatment); type: cell-based; settings: 20 IU/well HIV; for OD readings at 450 nm (HIV p24 antigen): MT-2; for Calculated single treatment ED50: MT-2 cells, p24 assay
Excerpt: as §1, §2, §3, §4, §5, §6

[8] = tested on: PBMC; experiment: Toxicity study (median lethal dose) in PBMC; type: cell-based, human
Protocol: (§7) The median lethal doses (LD₅₀) of single treatment of Procysteine® were 5 mM with PBMC, 21 mM with H-9 cells, and 31 mM with MT-2 cells. […] Therefore, both 25 mM or 50 mM of Procysteine® could have caused significant cell mortality in the test cell systems. […] To avoid the misinterpretation of drug antiviral efficacy due to toxicity, an alternative design using lower concentrations of Procysteine® in the combination treatment was performed. […] The HIV p24 assays were performed for analysis.

[9] = tested on: H-9 cells; experiment: Toxicity study (median lethal dose) in H-9 cells; type: cell-based
Protocol: as §7

[10] = tested on: MT-2 cells; experiment: Toxicity study (median lethal dose) in MT-2 cells; type: cell-based, human
Protocol: as §7

[11] = tested on: H-9, MT-2, and PBMC; experiment: Toxicity study (median lethal dose), all three cell systems together; type: cell-based; settings: range over the cell systems studied in this protocol
Protocol: as §7

[12] = 10⁴ nucleated cells cultured 14 days

- hematological effects in terminal blood (hemoglobin, hematocrit, erythrocyte counts decreased; MCV, MCH increased) [4]: Anemia
- burst forming units-erythroid for marrow cultures [5, 12]: No group differences
- total colonies and colony forming units-granulocyte/macrophage [5, 12]: significant induction
- nucleated cells in bone marrow aspirates ([5]; AZT 50 or 500 mg/kg body weight/day, compared to controls): significant reduction
- total count of erythroid series cells in bone marrow smears ([6]; AZT 50 or 500 mg/kg body weight/day, 1.0% Procysteine® diet in combination groups): reduced total count
- rubriblasts in bone marrow smears ([6]; AZT-treated): mild reduction
SMILES: Cc1cn([C@H]2C[C@H](N=[N+]=[N-])[C@@H](CO)O2)c(=O)[nH]c1=O [AZT]
- OD readings at 540 nm (MTT assay) ([1]; 0.0025 μM): 0.474
- OD readings at 540 nm (MTT assay) ([1]; 0.01 μM): 0.641
- OD readings at 540 nm (MTT assay) ([1]; 0.04 μM): 0.678
- OD readings at 540 nm (MTT assay) ([1]; 0.16 μM): 0.688
- OD readings at 540 nm (MTT assay) ([1]; 0.64 μM): 0.946
- Calculated single treatment ED50 [1]: 0.055 µM
- OD readings at 450 nm (HIV p24 antigen) ([2]; 0.0025 μM): 4.133
- OD readings at 450 nm (HIV p24 antigen) ([2]; 0.01 μM): 4.133
- OD readings at 450 nm (HIV p24 antigen) ([2]; 0.04 μM): 4.133
- OD readings at 450 nm (HIV p24 antigen) ([2]; 0.16 μM): 3.815
- OD readings at 450 nm (HIV p24 antigen) ([2]; 0.64 μM): 0.358
- OD readings at 450 nm (HIV p24 antigen) ([3]; 0.0025 μM): 3.405
- OD readings at 450 nm (HIV p24 antigen) ([3]; 0.01 μM): 2.978
- OD readings at 450 nm (HIV p24 antigen) ([3]; 0.04 μM): 0.155
- OD readings at 450 nm (HIV p24 antigen) ([3]; 0.16 μM): 0.163
- OD readings at 450 nm (HIV p24 antigen) ([3]; 0.64 μM): 0.204
- Calculated single treatment ED50 [3]: 0.021 µM
- metarubricytes (nonproliferating) in bone marrow smears ([6]; AZT-treated): marked reduction
- nonproliferating compartment of the myeloid series ([6]; bone marrow smears): reduction
- proliferating compartment of the myeloid series ([6]; bone marrow smears): significantly increased

SMILES: O=C1N[C@H](C(=O)O)CS1 [Procysteine®]
- OD readings at 540 nm (MTT assay) ([1]; 0.023 mM): 0.392
- OD readings at 540 nm (MTT assay) ([1]; 0.23 mM): 0.265
- OD readings at 540 nm (MTT assay) ([1]; 0.93 mM): 0.283
- OD readings at 540 nm (MTT assay) ([1]; 3.75 mM): 0.270
- OD readings at 540 nm (MTT assay) ([1]; 15 mM): 0.308
- OD readings at 540 nm (MTT assay) ([1]; 60 mM): 0.350
- Calculated single treatment ED50 [1]: 2.3e+16 µM
- OD readings at 450 nm (HIV p24 antigen) ([7]; 0.023 mM): 3.269
- OD readings at 450 nm (HIV p24 antigen) ([7]; 0.23 mM): 3.712
- OD readings at 450 nm (HIV p24 antigen) ([7]; 0.93 mM): 3.762
- OD readings at 450 nm (HIV p24 antigen) ([7]; 3.75 mM): 3.649
- OD readings at 450 nm (HIV p24 antigen) ([7]; 15 mM): 2.825
- OD readings at 450 nm (HIV p24 antigen) ([7]; 60 mM): 1.675
- Calculated single treatment ED50 [7]: 1613 mM
- OD readings at 450 nm (HIV p24 antigen) ([2]; 0.023 mM): 4.133
- OD readings at 450 nm (HIV p24 antigen) ([2]; 0.23 mM): 4.133
- OD readings at 450 nm (HIV p24 antigen) ([2]; 0.93 mM): 4.133
- OD readings at 450 nm (HIV p24 antigen) ([2]; 3.75 mM): 4.133
- OD readings at 450 nm (HIV p24 antigen) ([2]; 15 mM): 4.099
- OD readings at 450 nm (HIV p24 antigen) ([2]; 60 mM): 0.767
- Calculated single treatment ED50 [2]: 653000 µM
- OD readings at 450 nm (HIV p24 antigen) ([3]; 0.023 mM): 3.703
- OD readings at 450 nm (HIV p24 antigen) ([3]; 0.23 mM): 3.057
- OD readings at 450 nm (HIV p24 antigen) ([3]; 0.93 mM): 2.951
- OD readings at 450 nm (HIV p24 antigen) ([3]; 3.75 mM): 3.640
- OD readings at 450 nm (HIV p24 antigen) ([3]; 15 mM): 3.284
- OD readings at 450 nm (HIV p24 antigen) ([3]; 60 mM): 1.141
- Calculated single treatment ED50 [3]: 378000 µM
- median lethal doses (LD50) ([8]; single treatment): 5 mM
- LD50 value ([8]; with 1 µM of AZT): 8.3 mM
- median lethal doses (LD50) ([9]; single treatment): 21 mM
- LD50 value ([9]; with 1 µM of AZT): 30 mM
- LD50 value ([10]; as quoted in the discussion of ddI combination treatment): 31 to 32 mM
- median lethal doses (LD50) ([10]; single treatment): 31 mM
- LD50 value ([10]; with 1 µM of AZT): 36 mM
- median lethal doses (LD50) [11]: 5 to 30 mM

SMILES: O=c1[nH]cnc2c1ncn2[C@H]1CC[C@@H](CO)O1 [ddI]
- OD readings at 540 nm (MTT assay) ([1]; 0.25 μM): 0.551
- OD readings at 540 nm (MTT assay) ([1]; 1 μM): 0.603
- OD readings at 540 nm (MTT assay) ([1]; 4 μM): 0.561
- OD readings at 540 nm (MTT assay) ([1]; 16 μM): 0.880
- OD readings at 540 nm (MTT assay) ([1]; 64 μM): 1.135
- Calculated single treatment ED50 [1]: 2.778 µM
- OD readings at 450 nm (HIV p24 antigen) ([7]; 0.25 μM): 3.351
- OD readings at 450 nm (HIV p24 antigen) ([7]; 1 μM): 3.025
- OD readings at 450 nm (HIV p24 antigen) ([7]; 4 μM): 0.710
- OD readings at 450 nm (HIV p24 antigen) ([7]; 16 μM): 1.167
- OD readings at 450 nm (HIV p24 antigen) ([7]; 64 μM): 1.131
- Calculated single treatment ED50 [7]: 0.004069 mM
- OD readings at 450 nm (HIV p24 antigen) ([2]; 0.25 μM): 3.984
- OD readings at 450 nm (HIV p24 antigen) ([2]; 1 μM): 1.542
- OD readings at 450 nm (HIV p24 antigen) ([2]; 4 μM): 0.772
- OD readings at 450 nm (HIV p24 antigen) ([2]; 16 μM): 0.716
- OD readings at 450 nm (HIV p24 antigen) ([2]; 64 μM): 0.329
- Calculated single treatment ED50 [2]: 2.424 µM
- OD readings at 450 nm (HIV p24 antigen) ([3]; 0.25 μM): 2.730
- OD readings at 450 nm (HIV p24 antigen) ([3]; 1 μM): 2.658
- OD readings at 450 nm (HIV p24 antigen) ([3]; 4 μM): 0.672
- OD readings at 450 nm (HIV p24 antigen) ([3]; 16 μM): 0.212
- OD readings at 450 nm (HIV p24 antigen) ([3]; 64 μM): 0.098
